Assay results: patent US8273753B2, “Polymorph B of N-{2-Fluoro-5-[3-(thiophene-2-carbonyl)-pyrazolo[1,5-a]pyrimidin-7-yl]-phenyl}-N-methyl-acetamide” (Ferrer International, S.A., priority 2006, dated 2012)

How the values were obtained:
Format in all cases: in vivo
mice [1] = assay: Spontaneous motor activity in mice after oral administration (induction of sedation); details: for ED50: Mus musculus, oral administration, spontaneous motor activity, read-out: ED50 sedation (dose that induces sedation in 50% of animals)
Method: The effect of oral administration of both indiplon and the compound of the present invention on the spontaneous motor activity in mice is an accepted model to evaluate the induction of the sedation, an experiment considered predictive of hypnotic efficacy. In this experiment, the ED50—the dose that induces sedation in 50% of animals—was calculated.

mice [2] = assay: Two-way active avoidance paradigm in mice (amnesia liability); details: oral administration; for MED amnesia (minimal effective dose that induces statistically significant impairment of memory): two-way active avoidance
Method: Finally, a third experiment to evaluate adverse effects was performed. The model was the two-way active avoidance paradigm, which represents a behavioural test useful for evaluating learning and memory processes in mice. In this case, the amnesia liability index was obtained. Since it was reported that benzodiazepine-like drugs induce amnesia, this index allows to determine the margin between the preclinical effective doses that induce sedation compared to the minimal effective dose that induce statistically significant impairment of memory in mice (MED amnesia/ED50 sedation). Therefore, the amnesic liability index was calculated for both compounds. The results obtained are included in Table 1

mice [3] = assay: EEG recording of the sleep-wake cycle in mice; details: FIG. 7; for Effect on the three sleep parameters (time of wake, slow wave sleep, paradoxical sleep): mice, EEG, doses ED50, 3-fold and 6-fold
Method: This increased sedative/hypnotic efficacy was confirmed by electroencephalographyc (EEG) experiments, when the recording of the sleep-wake cycle in mice was evaluated. Based on the previous experiment, doses were chosen and both compounds were tested at equipotent pharmacological doses (the ED50, 3-fold and 6-fold for both cases).
In FIG. 7, results are expressed as the mean time (min±SEM) spent in each behavioral state during a recording period of 6 h in the same animals (n=9).

[4] = mice n=9, 6 h recording period, largest dose

| SMILES | ED50 (mice [1]) | Amnesic liability Index (MED amnesia/ED50 sedation) (mice [2]) | MED amnesia (minimal effective dose that induces statistically significant impairment of memory) (mice [2]) | Slow wave sleep (SWS) mean time (mice [3]; [4]) | Effect on the three sleep parameters (time of wake, slow wave sleep, paradoxical sleep) (mice [3]) | Sedative potency relative to indiplon (more potent) (mice [1]; oral, ED50 0.13 vs 0.2 mg/Kg) | Greater margin between sedation induction and amnesia than indiplon (mice [2]) | Paradoxical sleep (PS) time, change (mice [3]; [4]) | Waking (W) time, change (mice [3]; [4]) |
| --- | --- | --- | --- | --- | --- | --- | --- | --- | --- |
| CC(=O)N(C)c1cccc(-c2ccnc3c(C(=O)c4cccs4)cnn23)c1 [Indiplon, N-{3-[3-(thiophene-2-carbonyl)-pyrazolo[1,5-a]pyrimidin-7-yl]-phenyl}-N-methyl-acetamide, reference compound] | 0.2 mg/kg | 50 fold margin | 10 mg/kg | less than 140 min | effective only in one parameter (slow wave sleep) |  |  |  |  |
| CC(=O)N(C)c1cc(-c2ccnc3c(C(=O)c4cccs4)cnn23)ccc1F [Compound (I), N-{2-Fluoro-5-[3-(thiophene-2-carbonyl)-pyrazolo[1,5-a]pyrimidin-7-yl]-phenyl}-N-methyl-acetamide] | 0.13 mg/kg | 75 fold margin | 10 mg/kg | up to 140 min | statistically significant improvement on all three of the parameters evaluated | 35% | 25 fold | increase | decrease |
